# According to US20200163984A1, “USE OF ISOVALERYL SPIRAMYCIN I, II AND/OR III IN MANUFACTURING MEDICAMENT FOR TREATING AND/OR PREVENTING TUMOR, AND MEDICAMENT” (SHENYANG FUYANG PHARMACEUTICAL TECHNOLOGY CO., LTD., priority 2017, published 2020):
# Read-outs that look alike come from different tables or passages of the source.
# Tests used:
# Details in all cases: for Tumor Volume (mm3) (d 1): d1
# [1] = test system: transplanted tumor of human hepatoma cell HepG-2; experiment: HepG-2 transplanted tumor in nude mice
# Experimental: (§1) Then cell concentration was adjusted to 1×10^7/ml with matrigel, then each nude mouse was inoculated subcutaneously with 0.2 ml of cells at its right armpit and recorded as the first day of inoculation. When the tumor grows to be greater than or equal to 100 mm^3, the mice were randomly divided into 11 groups with 6 mice in each group: a model group, a cyclophosphamide group, isovaleryl spiramycin I groups with doses of 25, 50 and 100 mg/kg, isovaleryl spiramycin II groups with doses of 25, 50 and 100 mg/kg, and isovaleryl spiramycin III groups with doses of 25, 50 and 100 mg/kg. Each group was continuously administered intragastrically for 30 days with a dose of 20 ml/kg. The mice were sacrificed the next day after drug withdrawal and the indicators were tested. The long diameter and short diameter of the tumor, and the body weight of each mouse were recorded every 3 days from drug administration to nude mouse sacrifice.
# (§2) The body weight of the nude mice and the long diameter (a) and short diameter (b) of the transplanted tumor were measured every 3 days, and the tumor volume (v), relative tumor volume (RTV) and relative tumor proliferation rate (T/C) are calculated respectively according to the following formulas, wherein V=a×b^2/2; RTV=V/V0 (V0 is the tumor volume before administration, V is the tumor volume before sacrifice), and T/C (%)=treatment group RTV/model control group RTV×100%.
# (§3) Each mouse was weighed and sacrificed. After the tumor was completely stripped off from the body of the mouse, the non-tumor tissues such as blood stains and fat were removed to weigh the tumor and calculate the tumor growth inhibition rate. The average tumor weight of each group of mice is used as an indicator of efficacy. Tumor growth inhibition rate (%)=(1−the average tumor weight of the treatment group/the average tumor weight of the model group)×100%.
# [2] = test system: transplanted tumor of human glioblastoma cell A172
# Experimental: as §1, with “temozolomide” for “cyclophosphamide”, “[…], […], […]” for “isovaleryl spiramycin I groups with doses of 25, 50 and 100 mg/kg, isovaleryl spiramycin II groups with doses of 25, 50 and 100 mg/kg, and isovaleryl spiramycin III groups with doses of 25, 50 and 100 mg/kg.”
# as §2, §3
# [3] = test system: transplanted tumor of human cervical cancer cell HeLa; experiment: HeLa transplanted tumor in nude mice
# Experimental: as §1, with “HeLa cells in a logarithmic growth phase were taken and subjected to a trypan blue exclusion experiment showing that the cell viability was more than 95%, then the cells were subjected to trypsinization, centrifugation, and supernatant removal. Then” for “Then”
# as §2, §3
# [4] = HepG-2, high dose (100 mg/kg in method) i.g. 30 days
# [5] = HepG-2, low dose (25 mg/kg in method) i.g. 30 days
# [6] = HepG-2, medium dose (50 mg/kg in method) i.g. 30 days
# [7] = A172, high dose (100 mg/kg in method) i.g. 30 days
# [8] = A172, low dose (25 mg/kg in method) i.g. 30 days
# [9] = A172, medium dose (50 mg/kg in method) i.g. 30 days
# [10] = HeLa, high dose (100 mg/kg in method) i.g. 30 days
# [11] = HeLa, low dose (25 mg/kg in method) i.g. 30 days
# [12] = HeLa, medium dose (50 mg/kg in method) i.g. 30 days
smiles,measurement,setting,value
"CO[C@@H]1[C@@H](O[C@@H]2O[C@H](C)[C@@H](O[C@H]3C[C@@](C)(O)[C@@H](OC(=O)CC(C)C)[C@H](C)O3)[C@H](N(C)C)[C@H]2O)[C@@H](CC=O)C[C@@H](C)[C@@H](O[C@H]2CC[C@H](N(C)C)[C@@H](C)O2)/C=C/C=C/C[C@@H](C)OC(=O)C[C@H]1O [Isovaleryl spiramycin I, isovaleryl spiramycin I]",Relative Tumor Proliferation Rate (T/C),[1]; [4],27.49%
same,tumor growth inhibition rate,[1]; [4],68.22%
same,Relative Tumor Proliferation Rate (T/C),[1]; [5],65.03%
same,tumor growth inhibition rate,[1]; [5],24.43%
same,tumor volume and relative tumor volume compared with the model group,"[1]; HepG-2, low, medium and high doses, P<0.05",significantly lower
same,Relative Tumor Proliferation Rate (T/C),[1]; [6],42.12%
same,tumor growth inhibition rate,[1]; [6],57.93%
same,Inhibition Rate (%),"[1]; HepG-2 nude mice, 25 mg/kg",24.43%
same,Relative Tumor Proliferation Rate (T/C),"[1]; HepG-2 nude mice, 25 mg/kg",65.03%
same,Relative Tumor Volume (RTV),"[1]; HepG-2 nude mice, 25 mg/kg",10.89 ± 2.67
same,Tumor Weight,"[1]; HepG-2 nude mice, 25 mg/kg",1.84 ± 0.23 g
same,Tumor Volume (mm3) (d 1),"[1]; HepG-2 nude mice, 25 mg/kg",114.02 ± 11.68 mm3
same,Tumor Volume (mm3) (d30),"[1]; HepG-2 nude mice, 25 mg/kg",1248.33 ± 337.59 mm3
same,Inhibition Rate (%),"[1]; HepG-2 nude mice, 50 mg/kg",57.93%
same,Relative Tumor Proliferation Rate (T/C),"[1]; HepG-2 nude mice, 50 mg/kg",42.12%
same,Relative Tumor Volume (RTV),"[1]; HepG-2 nude mice, 50 mg/kg",7.05 ± 3.35
same,Tumor Weight,"[1]; HepG-2 nude mice, 50 mg/kg",1.02 ± 0.45 g
same,Tumor Volume (mm3) (d 1),"[1]; HepG-2 nude mice, 50 mg/kg",122.31 ± 4.68 mm3
same,Tumor Volume (mm3) (d30),"[1]; HepG-2 nude mice, 50 mg/kg",851.37 ± 371.80 mm3
same,Inhibition Rate (%),"[1]; HepG-2 nude mice, 100 mg/kg",68.22%
same,Relative Tumor Proliferation Rate (T/C),"[1]; HepG-2 nude mice, 100 mg/kg",27.49%
same,Relative Tumor Volume (RTV),"[1]; HepG-2 nude mice, 100 mg/kg",4.60 ± 3.39
same,Tumor Weight,"[1]; HepG-2 nude mice, 100 mg/kg",0.77 ± 0.44 g
same,Tumor Volume (mm3) (d 1),"[1]; HepG-2 nude mice, 100 mg/kg",110.06 ± 9.58 mm3
same,Tumor Volume (mm3) (d30),"[1]; HepG-2 nude mice, 100 mg/kg",481.16 ± 326.94 mm3
same,mouse weight compared with the model group,"[1]; mouse, in vivo",no significant changes
same,Body Weight (g) (d1),"[1]; mouse, in vivo, 25 mg/kg",21.36 ± 1.67 g
same,Body Weight (g) (d30),"[1]; mouse, in vivo, 25 mg/kg",23.24 ± 1.33 g
same,Body Weight (g) (d1),"[1]; mouse, in vivo, 50 mg/kg",21.47 ± 1.58 g
same,Body Weight (g) (d30),"[1]; mouse, in vivo, 50 mg/kg",23.64 ± 1.67 g
same,Body Weight (g) (d1),"[1]; mouse, in vivo, 100 mg/kg",21.37 ± 1.36 g
same,Body Weight (g) (d30),"[1]; mouse, in vivo, 100 mg/kg",22.867 ± 1.57 g
same,Relative Tumor Proliferation Rate (T/C),[2]; [7],25.16%
same,tumor growth inhibition rate,[2]; [7],68.79%
same,Relative Tumor Proliferation Rate (T/C),[2]; [8],74.49%
same,tumor growth inhibition rate,[2]; [8],30.75%
same,tumor volume and relative tumor volume compared with the model group,"[2]; A172, low, medium and high doses, P<0.05",significantly lower
same,Relative Tumor Proliferation Rate (T/C),[2]; [9],43.43%
same,tumor growth inhibition rate,[2]; [9],44.26%
same,Inhibition Rate (%),"[2]; A172 nude mice, 12.5 mg/kg",30.75%
same,Relative Tumor Proliferation Rate (T/C),"[2]; A172 nude mice, 12.5 mg/kg",74.49%
same,Relative Tumor Volume (RTV),"[2]; A172 nude mice, 12.5 mg/kg",12.69 ± 1.08
same,Tumor Weight,"[2]; A172 nude mice, 12.5 mg/kg",0.96 ± 0.08 g
same,Tumor Volume (mm3) (d 1),"[2]; A172 nude mice, 12.5 mg/kg",120.36 ± 10.15 mm3
same,Tumor Volume (mm3) (d30),"[2]; A172 nude mice, 12.5 mg/kg",1519.32 ± 71.53 mm3
same,Inhibition Rate (%),"[2]; A172 nude mice, 25 mg/kg",44.26%
same,Relative Tumor Proliferation Rate (T/C),"[2]; A172 nude mice, 25 mg/kg",43.43%
same,Relative Tumor Volume (RTV),"[2]; A172 nude mice, 25 mg/kg",10.67 ± 1.08
same,Tumor Weight,"[2]; A172 nude mice, 25 mg/kg",0.77 ± 0.09 g
same,Tumor Volume (mm3) (d 1),"[2]; A172 nude mice, 25 mg/kg",121.90 ± 10.10 mm3
same,Tumor Volume (mm3) (d30),"[2]; A172 nude mice, 25 mg/kg",889.01 ± 195.61 mm3
same,Inhibition Rate (%),"[2]; A172 nude mice, 50 mg/kg",68.79%
same,Relative Tumor Proliferation Rate (T/C),"[2]; A172 nude mice, 50 mg/kg",25.16%
same,Relative Tumor Volume (RTV),"[2]; A172 nude mice, 50 mg/kg",10.05 ± 0.71
same,Tumor Weight,"[2]; A172 nude mice, 50 mg/kg",0.43 ± 0.07 g
same,Tumor Volume (mm3) (d 1),"[2]; A172 nude mice, 50 mg/kg",122.38 ± 6.44 mm3
same,Tumor Volume (mm3) (d30),"[2]; A172 nude mice, 50 mg/kg",513.12 ± 89.49 mm3
same,mouse weight compared with the model group,"[2]; mouse, in vivo",no significant changes
same,Body Weight (g) (d1),"[2]; mouse, in vivo, 12.5 mg/kg",21.06 ± 0.43 g
same,Body Weight (g) (d30),"[2]; mouse, in vivo, 12.5 mg/kg",20.34 ± 0.17 g
same,Body Weight (g) (d1),"[2]; mouse, in vivo, 25 mg/kg",20.98 ± 0.73 g
same,Body Weight (g) (d30),"[2]; mouse, in vivo, 25 mg/kg",20.93 ± 0.54 g
same,Body Weight (g) (d1),"[2]; mouse, in vivo, 50 mg/kg",21.00 ± 0.65 g
same,Body Weight (g) (d30),"[2]; mouse, in vivo, 50 mg/kg",20.88 ± 0.58 g
same,Inhibition Rate (%),"[3]; HeLa nude mice, 12.5 mg/kg",46.69%
same,Relative Tumor Proliferation Rate (T/C),"[3]; HeLa nude mice, 12.5 mg/kg",69.18%
same,Relative Tumor Volume (RTV),"[3]; HeLa nude mice, 12.5 mg/kg",11.47 ± 4.97
same,Tumor Weight,"[3]; HeLa nude mice, 12.5 mg/kg",1.03 ± 0.59 g
same,Tumor Volume (mm3) (d 1),"[3]; HeLa nude mice, 12.5 mg/kg",112.43 ± 6.87 mm3
same,Tumor Volume (mm3) (d30),"[3]; HeLa nude mice, 12.5 mg/kg",1287.77 ± 552.57 mm3
same,Inhibition Rate (%),"[3]; HeLa nude mice, 25 mg/kg",51.57%
same,Relative Tumor Proliferation Rate (T/C),"[3]; HeLa nude mice, 25 mg/kg",39.57%
same,Relative Tumor Volume (RTV),"[3]; HeLa nude mice, 25 mg/kg",6.56 ± 0.55
same,Tumor Weight,"[3]; HeLa nude mice, 25 mg/kg",0.94 ± 0.48 g
same,Tumor Volume (mm3) (d 1),"[3]; HeLa nude mice, 25 mg/kg",112.78 ± 9.72 mm3
same,Tumor Volume (mm3) (d30),"[3]; HeLa nude mice, 25 mg/kg",738.39 ± 75.32 mm3
same,Inhibition Rate (%),"[3]; HeLa nude mice, 50 mg/kg",65.55%
same,Relative Tumor Proliferation Rate (T/C),"[3]; HeLa nude mice, 50 mg/kg",30.91%
same,Relative Tumor Volume (RTV),"[3]; HeLa nude mice, 50 mg/kg",5.13 ± 0.68
same,Tumor Weight,"[3]; HeLa nude mice, 50 mg/kg",0.67 ± 0.09 g
same,Tumor Volume (mm3) (d 1),"[3]; HeLa nude mice, 50 mg/kg",114.15 ± 6.08 mm3
same,Tumor Volume (mm3) (d30),"[3]; HeLa nude mice, 50 mg/kg",588.18 ± 73.34 mm3
same,Relative Tumor Proliferation Rate (T/C),[3]; [10],30.91%
same,tumor growth inhibition rate,[3]; [10],65.55%
same,Relative Tumor Proliferation Rate (T/C),[3]; [11],69.18%
same,tumor growth inhibition rate,[3]; [11],46.69%
same,tumor volume and relative tumor volume compared with the model group,"[3]; HeLa, low, medium and high doses, P<0.05",significantly lower
same,Relative Tumor Proliferation Rate (T/C),[3]; [12],39.57%
same,tumor growth inhibition rate,[3]; [12],51.57%
same,mouse weight compared with the model group,"[3]; mouse, in vivo",no significant changes
same,Body Weight (g) (d1),"[3]; mouse, in vivo, 12.5 mg/kg",20.72 ± 0.49 g
same,Body Weight (g) (d30),"[3]; mouse, in vivo, 12.5 mg/kg",21.10 ± 0.68 g
same,Body Weight (g) (d1),"[3]; mouse, in vivo, 25 mg/kg",21.07 ± 0.44 g
same,Body Weight (g) (d30),"[3]; mouse, in vivo, 25 mg/kg",21.23 ± 0.73 g
same,Body Weight (g) (d1),"[3]; mouse, in vivo, 50 mg/kg",20.82 ± 0.72 g
same,Body Weight (g) (d30),"[3]; mouse, in vivo, 50 mg/kg",20.95 ± 0.45 g
